Patent US4464383A, “Immunomodulator containing trithiazole pentamethine cyanine derivative” (priority 1981, dated 1984)
Where two headings read alike, the source gives them in different places.

Experiments:
[1] = prior art; cited from earlier work
Acute toxicity (LD50) = conditions: mouse, in vivo, mice, 7 days observation
Method: Eight male ddY mice 5 to 6 weeks old weighing 25 to 30 g. were used as one group. A 5% suspension of the compound to be tested in gum arabic was administered intraperitoneally, intravenously or orally using a stomach tube. The animals were kept under observation for 7 days. The numbers of dead animals were counted and the LD50 values were calculated by the Van der Warden method.

[2] = Inhibition of adjuvant arthritis in rat, preventive effect (paw volume); type: in vivo, SD rats
Method: (§1) Five SD rats 7 to 8 weeks old weighing about 150 g. were used as one group. A dispersion of mycobacterium butyricium in liquid parrafin in a concentration of 12 mg./ml. was injected intracutaneously into the footpad of the right hind foot in a dose of 0.05 ml./rat to cause an adjuvant arthritis (AA). For 30 days after the injection of the adjuvant, the volume of both hind feet was measured by a mercury plethysmography and AA was estimated from the obtained measurements.
(§2) With respect to Compound Nos. 1, 3 and 10, the preventive effect on AA was examined. The oral administration of the compound to be tested was begun at the same time as the administration of the adjuvant and continued for 30 days once a day. The same test was carried out with D-penicillamine and Levamisole.

Clinical test, Case 1 = type: in vivo, patient; conditions: 50 μg. once a day, oral
[3] = Pharmacological activities and side-effects, general statements
Clinical test, Case 2 = type: in vivo, patient
[4] = Effect on carrageenan-induced edema in rat; type: in vivo, SD rats; conditions: dose 0.005 to 0.05 μg./animal, oral, 30 minutes before carrageenan
Method: Five SD rats 7 to 8 weeks old weighing about 150 g. were used as one group. A 1% dispersion of carrageenan was injected intracutaneously into the foot pad of the right hind foot in a dose of 0.1 ml./rat. For 6 hours after the injection, the volume of the foot subjected to the injection was measured by a mercury plethysmography and the carrageenan-induced edema was estimated from the obtained measurements. Compound No. 3 was orally administered 30 minutes before the injection of the carrageenan dispersion.

[5] = Change in body weight of rat with adjuvant arthritis; type: in vivo, SD rats; conditions: D-penicillamine or Levamisole; 1st, 10th, 20th and 30th day
Method: as §1, §2
During the test of the preventive effect on AA as described in the above (1), the body weight of each rat was measured on 1st, 10th, 20th, and 30th day.

[6] = dose 0.05 μg./animal, oral, once a day for 30 days
[7] = 100 μg. once a day, oral, after 5 days
[8] = after 3 weeks, twice a week after 7 days, oral
[9] = dose 1.5 mg./animal (even at a higher dose)

In the case of O=C([O-])c1ccccc1Nc1cc(Cl)ccc1C(=O)[O-].[Na+].[Na+] [CCA, N-(2-carboxyphenyl)-4-chloroanthranilic acid disodium salt], the “toxicity of known immunomodulators” value [1] is listed as “severe toxicities”.
In the case of CCCCN1C(C)=CSC1=CC=C(C=Cc1scc(C)[n+]1CCCC)c1scc(C)[n+]1CCCC [compound 2], the LD50 at 168 h (Acute toxicity (LD50); ip, i.p., read-out: LD50 i.p.) is reported as 51 mg/kg, the LD50 at 168 h (Acute toxicity (LD50); iv, i.v., read-out: LD50 i.v.) is reported as 8.5 mg/kg and the LD50 at 168 h (Acute toxicity (LD50); po, p.o., read-out: LD50 p.o.) is reported as greater than 1400 mg/kg.
CCCCCCCCN1C(C)=CS\C1=C/C=C(/C=C/c1scc(C)[n+]1CCCCCCCC)c1scc(C)[n+]1CCCCCCCC showed an LD50 at 168 h (Acute toxicity (LD50); ip, i.p., read-out: LD50 i.p.) of 120 mg/kg, an LD50 at 168 h (Acute toxicity (LD50); iv, i.v., read-out: LD50 i.v.) of 13.5 mg/kg and an LD50 at 168 h (Acute toxicity (LD50); po, p.o., read-out: LD50 p.o.) greater than 1400 mg/kg.
For CCCCCCCN1C(C)=CS\C1=C/C=C(/C=C/c1scc(C)[n+]1CCCCCCC)c1scc(C)[n+]1CCCCCCC, the “inhibition of AA, preventive effect” value ([2]; dose 0.005 μg./animal, oral, once a day for 30 days) was “inhibited AA”, the “inhibition of AA, preventive effect” value [2, 6] was “inhibit AA” and the LD50 at 168 h (Acute toxicity (LD50); ip, i.p., read-out: LD50 i.p.) was 100 mg/kg. For the same compound, the LD50 at 168 h (Acute toxicity (LD50); iv, i.v., read-out: LD50 i.v.) was 12 mg/kg, the LD50 at 168 h (Acute toxicity (LD50); po, p.o., read-out: LD50 p.o.) was greater than 1400 mg/kg and the known pharmacological activities [1] was “antibacterial activity, the acceleration of wound healing, the stimulation of reticular hematopoietic organ and endocrine organ, and the enhancement of antibody formation”. The side-effect (Clinical test, Case 1) was “no side-effect”, the therapeutic effect (Clinical test, Case 1) was “excellent therapeutic effect” and the “inflammation at wrist articulatio coxae and violent pain” value (Clinical test, Case 1; after 5 days) was “almost removed”. The “stiffness in the morning and systemic malaise” value (Clinical test, Case 1; after 5 days) was “relieved”, the mobility (Clinical test, Case 1; morning of the seventh day) was “could arise from a sickbed and go down the stairs with ease” and the side-effects ([3]; cytotoxicity (e.g. granulocytopenia), vomiting, nausea, pyrexia, rash and myasthenia) was “does not have side-effects”. The immunomodulating action ([3]; immunological function enhanced) was “shows an immunosuppressive effect”, the immunomodulating action ([3]; immunological function lowered) was “shows an immunological activating effect” and the immunomodulating action ([3]; normal immunological function) was “has no influence on the normal immunological function”. The “systemic malaise and stiffness in the morning” value (Clinical test, Case 2; 100 μg. once a day, oral, after 3 days) was “relieved”, the “inflammation at the joints” value (Clinical test, Case 2; [7]) was “relieved” and the “need for suppository of Indometacin” value (Clinical test, Case 2; [7]) was “no necessity for administering the suppository of Indometacin”. For the same compound, the sleep (Clinical test, Case 2; [7]) was “became to sleep well”, the side-effect (Clinical test, Case 2; 100 μg., oral) was “No side-effect was observed” and the ability to walk (Clinical test, Case 2; [8]) was “became to be able to walk”. For the same compound, the “swelling (hydrocele) at the joints” value (Clinical test, Case 2; [8]) was “improved” and the “anti-inflammatory action on carrageenan-induced edema” value [4] was “did not show anti-inflammatory action”.
With COc1ccc2c(c1)c(CC(=O)O)c(C)n2C(=O)c1ccc(Cl)cc1 [Indometacin, reference compound] the “side-effect of the medicines used before” value (Clinical test, Case 2; human, in vivo) was “gastric ulcer, urticaria and diarrhea” and the “condition of the patient on previous treatment” value (Clinical test, Case 2; suppository of Shiozol and that of Indometacin, before Compound No. 3) was “took a turn for the worse”.
In the case of c1ccc([C@H]2CN3CCSC3=N2)cc1 [Levamisole], the “inhibition of AA, preventive effect” value [2, 9] is listed as “do not inhibit AA”, the “toxicity of known immunomodulators” value [1] is listed as “severe toxicities” and the “change in body weight compared with Control” value [5] is listed as “no significant difference”.
In the case of CCCCCCCCCCCCN1C(C)=CSC1=CC=C(C=Cc1scc(C)[n+]1CCCCCCCCCCCC)c1scc(C)[n+]1CCCCCCCCCCCC [compound 10], the “inhibition of AA, preventive effect” value [2, 6] is reported as “inhibit AA”, the LD50 at 168 h (Acute toxicity (LD50); ip, i.p., read-out: LD50 i.p.) is reported as 300 mg/kg and the LD50 at 168 h (Acute toxicity (LD50); iv, i.v., read-out: LD50 i.v.) is reported as 45.2 mg/kg. It also gave an LD50 at 168 h (Acute toxicity (LD50); po, p.o., read-out: LD50 p.o.) greater than 1400 mg/kg.
In the case of CC(C)(S)[C@@H](N)C(=O)O [D-penicillamine], the “inhibition of AA, preventive effect” value [2, 9] is given as “do not inhibit AA”, the “toxicity of known immunomodulators” value [1] is given as “severe toxicities” and the “change in body weight compared with Control” value [5] is given as “no significant difference”.
For CC1=CSC(=CC=C(C=Cc2scc(C)[n+]2C)c2scc(C)[n+]2C)N1C [compound 1], the “inhibition of AA, preventive effect” value [2, 6] was “inhibit AA”, the LD50 at 168 h (Acute toxicity (LD50); ip, i.p., read-out: LD50 i.p.) was 23.4 mg/kg and the LD50 at 168 h (Acute toxicity (LD50); iv, i.v., read-out: LD50 i.v.) was 6.25 mg/kg. For the same compound, the LD50 at 168 h (Acute toxicity (LD50); po, p.o., read-out: LD50 p.o.) was greater than 1400 mg/kg.
